Tests used:
[1] = tested on: subcutaneous chondrosarcoma tumors; test: Chondrosarcoma tumor growth delay after PDT; assay type: in vivo, Sprague-Dawley rats; settings: rats; drug dose 2.0 μmol/kg; light dose 125 J/cm2; optimal conditions, 24 hrs post drug administration
Method: The carbamate compounds were formulated in egg yolk phosphatidyl choline (EYP) and phosphate buffered saline (PBS) (pH 7.4). These were sterilized by filtration through a 0.2-micron nylon filter and determined to be stable for at least several weeks following formulation by HPLC. Five Sprague-Dawley rats with subcutaneous chondrosarcoma tumors in the flank of a certain volume (150-250 mm^3) were injected intravenously with various drugs at various doses. Three hours after the injection the tumors were exposed to 664-nm light at light doses of 125 J/cm^2 or 200 J/cm^2. The end point of the study was the observation of tumor regrowth (averaged over the animals) following the treatment.
Table 2 illustrates the results for the best drug and light doses that were tested in the above system and are compared with the well known photosensitizer SnET2 under optimal conditions (24 hrs post drug administration).

normal skin = test: Normal skin clearance (skin response) of photosensitizers in irradiated hairless rats; assay type: in vivo; settings: drug dose 0.5 μmol/Kg, light dose 150 mW/cm^2/125 J at activation wavelength, time point post injection
Text: Ester and amide cleavage appear to be the major metabolic routes. As stated previously, one of the inventors' surprising and unexpected biological observations was that the carbamate analogs produce limited skin phototoxicity. Table 1 outlines the normal skin clearance of several carbamate photosensitizers as determined by irradiating hairless rats at the activation wavelength of the photosensitizer at 150 mW/cm2/125 J at different time points post injection. As can be clearly seen, carbamate analogs elicit skin responses at very early time points (1-6 hrs) and not past 6 hrs. […] Examples in Table (1) include compounds (26) and (Chl) and (37) and (35). In these cases the hydroxylated parent tetrapyrroles (Chl) and (35), at drug doses of 0.5 μmol/Kg, elicit maximal normal skin responses at 24 and 48 hrs, respectively. By comparison, their carbamate analogs (26) and (37), at drug doses of 1.0 μmol/Kg and 1.5 μmol/Kg, respectively, elicit maximal skin responses at 6 hrs only. Clearly, if ester metabolism of the carbamate back to the parent hydroxylated macrocycle was rapid in blood plasma one would expect skin responses similar to parent hydroxylated macrocycle. This is not the case. It is known by the present inventors and others that metabolism of the propionic acid methyl ester functionality is generally slow in rat and human blood plasma (10-20% metabolism at 24 hrs).

Molecule | Days (regrowth) [1] | Skin Response (normal skin)
CCOC(=O)C1=Cc2c3nc(cc4nc(cc5[n-]c(cc6[n-]c2c(C)c6CC)c(C)c5CC)C(C)=C4CC)[C@@H](C)[C@]13CC.[Cl-].[Cl-].[Sn] (racemic) [SnET2, Tin Ethyletiopurpurin] | 13 days | 
diethanolsulfonylamide zinc octaethylbenzochlorin [(35)] |  | 48 h

Source: patent publication US20040266748A1, “Photosensitizing carbamate derivatives” (priority 2001, published 2004)
